Measurements as given in patent US9949946B2, “Inclusion complexes of pinocembrin with cyclodextrin or its derivatives” (CSPC ZHONGQI PHARMACEUTICAL TECHNOLOGY (SHIJIAZHUANG) CO., …, priority 2008, dated 2018).

Experiments:
[1] = tested on: MCAO operation-injured rats; test: MCAO model, rCBF of the rat acute cerebral ischemia tissue; assay type: in vivo; details: 30 minutes after the cerebral ischemia, 3 mg/kg
Method: Assay Method: The assay was conducted according to the MCAO model method as reported in the literature (Zhang Juntian, Modern Experimental Methods in Pharmacology, October 1998, the First Edition, the United Press of Beijing Medical University and Peking Union Medical College).
The rCBF (regional cerebral blood flow) value in the cortex medium-sized arterial blood-supplying area reduced rapidly to 20˜30% of the pre-operation basal level because of the MCAO operation. 24 hours after ischemia (pre-decapitation), the collateral circulation compensation established and the rCBF value increased a little compared with the value during the operation, but still below 50% of the basal level.
30 minutes after the cerebral ischemia, the rCBF value of the vehicle group was 31.09±5.35% of the basal value, and the rCBF values of the administration groups, i.e., the inclusion complex DL0108 group (1 mg/kg, 3 mg/kg, 10 mg/kg) and the nimodipine group, were 40.76±6.58%, 50.09±7.09%, 53.28±8.03%, 55.58±6.09% of the basal value respectively. […] The DL0108 (3, 10 mg/kg) group and the nimodipine (3 mg/kg) group had significant differences from the vehicle group (P<0.05).

[2] = Determination of the solubility of pinocembrin; assay type: physicochemical; details: water
Method: Through using cyclodextrin or its derivative to include pinocembrin and make pinocembrin molecules entrap in the tubular structure of cyclodextrin or its derivative, and therefore obtain the inclusion complex of pinocembrin with cyclodextrin or its derivative, the water-solubility of pinocembrin is enhanced greatly. […] The specific results are shown in Example 10.
In order to screen solubilizer, cosolvent and non-aqueous solvent useful for injection, a series of experiments were conducted with their general dosages respectively to determine the solubilization effect of pinocembrin.
The solubilities in Table 1 are the solubilities of pinocembrin.

## COCCOC(=O)C1=C(C)NC(C)=C(C(=O)OC(C)C)C1c1cccc([N+](=O)[O-])c1 (centres unmarked) [nimodipine]
[1]
  rCBF value: 55.58±6.09 % of the basal value

## O=C1CC(c2ccccc2)Oc2cc(O)cc(O)c21 (centres unmarked) [pinocembrin, 2,3-Dihydro-5,7-dihydroxy-2-phenyl-4H-1-benzopyran-4-one]
[2]
  solubility: < 200 µg/mL
